Experimental data as given in article PMC5947317 (ACS chemical biology, 2017).
Like-named read-outs stand apart in the source and are kept apart here. Values belong to the compound of their own block, whether it stands above or below them.

Tests used:
UCHL1 [1] = biological target: T1, UCHL1 (Homo sapiens, UniProt P09936); test: Ub-AMC assay with recombinant UCHL1; assay type: biochemical; settings: for difference in IC50 value (selectivity for UCHL1): versus UCHL3, UCHL5, USP2 catalytic core
T1 sequence (P09936 1-223): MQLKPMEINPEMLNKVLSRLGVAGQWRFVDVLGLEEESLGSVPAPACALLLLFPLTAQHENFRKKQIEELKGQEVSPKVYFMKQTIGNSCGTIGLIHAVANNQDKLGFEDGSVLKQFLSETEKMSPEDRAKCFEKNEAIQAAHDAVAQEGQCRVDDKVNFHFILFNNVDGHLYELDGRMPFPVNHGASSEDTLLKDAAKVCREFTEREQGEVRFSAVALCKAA

HA-UCHL1 [2] = biological target: T2, HA-UCHL1 (Homo sapiens, UniProt P09936); test: AlphaLISA DUB assay miniaturized to 1536-well format; assay type: biochemical
T2 sequence (P09936 1-223): T1 sequence (P09936 1-223)

UCHL1 [3] = biological target: T1, UCHL1; test: Rapid dilution reversibility assay; assay type: biochemical; settings: incubated at ten times IC50, diluted 100-fold; normalized to DMSO
endogenous UCHL1 = biological target: T3, endogenous UCHL1 (Homo sapiens, UniProt P09936); assay type: biochemical; settings: 100 μM and 20 μM of compound; HEK293T cell lysates
T3 sequence (P09936 1-223): T1 sequence (P09936 1-223)

HA-UCHL1 [4] = biological target: T2, HA-UCHL1; settings: HEK293T cell lysates; Western blot, anti-HA
HA-UCHL1 [5] = biological target: T2, HA-UCHL1; test: Cell lysate AlphaLISA DUB assay, 384-well format; assay type: biochemical; settings: 384-well plate format; dose-response
UCHL1 [6] = settings: cited from earlier work
USP2 catalytic core = biological target: T4, USP2 catalytic core (Homo sapiens, UniProt O75604); test: Ub-AMC selectivity assay, USP2 catalytic core; assay type: biochemical; settings: 114 μM
T4 sequence (O75604 267-599 limits assumed): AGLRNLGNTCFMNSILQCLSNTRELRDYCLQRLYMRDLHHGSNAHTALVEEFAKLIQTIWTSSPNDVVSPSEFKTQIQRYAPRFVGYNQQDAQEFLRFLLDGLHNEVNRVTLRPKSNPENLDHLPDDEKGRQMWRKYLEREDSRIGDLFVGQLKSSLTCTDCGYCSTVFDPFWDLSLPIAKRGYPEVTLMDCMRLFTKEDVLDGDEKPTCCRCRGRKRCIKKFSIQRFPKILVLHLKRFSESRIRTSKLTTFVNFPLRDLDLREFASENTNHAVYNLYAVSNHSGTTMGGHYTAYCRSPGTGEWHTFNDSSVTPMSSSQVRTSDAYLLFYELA

UCHL3 = biological target: T5, UCHL3 (Homo sapiens, UniProt P15374); test: Ub-AMC selectivity assay, UCHL3; assay type: biochemical; settings: 114 μM
T5 sequence (P15374 1-230): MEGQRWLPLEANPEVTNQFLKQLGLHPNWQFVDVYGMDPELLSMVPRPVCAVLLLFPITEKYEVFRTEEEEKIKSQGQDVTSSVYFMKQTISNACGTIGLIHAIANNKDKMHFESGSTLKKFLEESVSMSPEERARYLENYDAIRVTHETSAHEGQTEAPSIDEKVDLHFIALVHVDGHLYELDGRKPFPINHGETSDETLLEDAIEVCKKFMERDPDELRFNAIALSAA

UCHL5 = biological target: T6, UCHL5 (Homo sapiens, UniProt Q9Y5K5); test: Ub-AMC selectivity assay, UCHL5; assay type: biochemical; settings: 114 μM
T6 sequence (Q9Y5K5 1-329): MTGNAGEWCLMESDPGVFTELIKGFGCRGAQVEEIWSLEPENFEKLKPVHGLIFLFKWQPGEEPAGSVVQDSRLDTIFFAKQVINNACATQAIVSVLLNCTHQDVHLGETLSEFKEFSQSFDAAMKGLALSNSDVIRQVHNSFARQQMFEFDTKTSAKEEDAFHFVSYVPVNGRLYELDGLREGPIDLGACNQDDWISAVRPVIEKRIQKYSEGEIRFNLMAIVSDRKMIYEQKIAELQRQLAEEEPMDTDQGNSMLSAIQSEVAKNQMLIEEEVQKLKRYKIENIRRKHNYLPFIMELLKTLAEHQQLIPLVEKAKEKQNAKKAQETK

full length USP15 = biological target: T7, full length USP15 (Homo sapiens, UniProt Q9Y4E8); test: Ub-AMC selectivity assay, full length USP15; assay type: biochemical; settings: 114 μM
T7 sequence (Q9Y4E8 1-981): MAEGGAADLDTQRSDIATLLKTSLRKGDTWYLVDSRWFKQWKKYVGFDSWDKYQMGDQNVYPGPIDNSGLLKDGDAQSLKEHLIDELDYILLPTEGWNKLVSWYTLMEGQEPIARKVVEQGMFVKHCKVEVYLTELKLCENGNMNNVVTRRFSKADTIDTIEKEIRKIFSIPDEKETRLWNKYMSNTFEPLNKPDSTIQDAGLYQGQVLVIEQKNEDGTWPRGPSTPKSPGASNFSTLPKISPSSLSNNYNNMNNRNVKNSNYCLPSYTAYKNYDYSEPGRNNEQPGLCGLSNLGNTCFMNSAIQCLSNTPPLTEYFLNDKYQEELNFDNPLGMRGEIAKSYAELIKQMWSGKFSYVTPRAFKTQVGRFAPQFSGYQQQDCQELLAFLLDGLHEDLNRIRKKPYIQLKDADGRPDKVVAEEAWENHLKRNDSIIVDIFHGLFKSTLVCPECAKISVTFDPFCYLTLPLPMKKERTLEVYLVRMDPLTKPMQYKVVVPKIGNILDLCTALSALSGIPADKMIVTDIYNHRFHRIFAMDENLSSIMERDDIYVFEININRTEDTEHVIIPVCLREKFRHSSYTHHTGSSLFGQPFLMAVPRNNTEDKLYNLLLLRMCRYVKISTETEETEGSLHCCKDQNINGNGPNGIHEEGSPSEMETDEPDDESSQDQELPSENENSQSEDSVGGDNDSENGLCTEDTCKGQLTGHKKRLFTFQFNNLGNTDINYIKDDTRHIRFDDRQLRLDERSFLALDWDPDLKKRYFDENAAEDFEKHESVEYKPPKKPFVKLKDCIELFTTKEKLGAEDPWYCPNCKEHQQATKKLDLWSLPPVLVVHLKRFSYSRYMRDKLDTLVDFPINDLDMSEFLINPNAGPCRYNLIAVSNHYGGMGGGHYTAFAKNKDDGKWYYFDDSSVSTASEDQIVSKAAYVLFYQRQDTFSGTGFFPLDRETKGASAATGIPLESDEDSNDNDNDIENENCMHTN

SMILES: CC(=O)Oc1c2c(c(CC=C(C)C)c3c1C(=O)C1=C[C@@H]4CC5C(C)(C)OC(C/C=C(\C)C(=O)O)(C4=O)[C@@]15O3)OC(C)(CCC=C(C)C)C=C2 (some centres unmarked) [acetyl isogambogic acid]
selectivity among UCHs and USPs tested (UCHL1 [1]; UCHL1 versus UCHL3, UCHL5, USP2 catalytic core, USP15, Ub-AMC): more promiscuous inhibitors
IC50 (HA-UCHL1 [2]): 30.6 µM
recovered UCHL1 activity after rapid dilution (UCHL1 [3]): > 80%
inhibition of endogenous UCHL1 labeling by HA-UbVMe (endogenous UCHL1): stronger inhibition

inhibition of UCHL1 labeling by biotin-UbVMe (HA-UCHL1 [4]): did not inhibit the labeling
inhibition in the AlphaLISA assay (HA-UCHL1 [5]): no obvious inhibition
SMILES: Cc1cnc(-c2ccccc2C(C)C)nc1NCc1ccc(-n2ccnn2)cc1 [ML323]
activity against UCHL1 (UCHL1 [6]): inactive

IC50 (UCHL1 [1]): 19.5 µM
IC50 (HA-UCHL1 [2]): 38.5 µM
SMILES: CO[C@H]1/C=C/O[C@@]2(C)Oc3c(C)c(O)c4c(O)c(c(/C=N/N5CCN(C)CC5)c(O)c4c3C2=O)NC(=O)/C(C)=C\C=C\[C@H](C)[C@H](O)[C@@H](C)[C@@H](O)[C@@H](C)[C@H](OC(C)=O)[C@@H]1C [rifampicin, reference compound]

SMILES: CCN1C(=O)C=CC1=O [NEM, N-ethylmaleimide, reference compound]
recovered UCHL1 activity after rapid dilution (UCHL1 [3]): 3.9%

inhibition at highest inhibitor concentration (USP2 catalytic core): no significant inhibition
IC50 (UCHL1 [1]; Ub-AMC as substrate): 47.7 µM
IC50 (HA-UCHL1 [2]; read-out: IC50 determined in the qHTS, qHTS, data not shown): 38.5 µM
recovered UCHL1 activity after rapid dilution (UCHL1 [3]): > 80%
inhibition at highest inhibitor concentration (UCHL3): no significant inhibition
inhibition at highest inhibitor concentration (UCHL5): no significant inhibition
inhibition at highest inhibitor concentration (full length USP15): no significant inhibition
SMILES: COC(=O)C1=CO[C@@H](C)[C@@H]2CN3CCc4c([nH]c5ccc(OC)cc45)[C@@H]3C[C@H]12 [(-)-aricine]

SMILES: CC1=C(O)C(=O)C=C2C1=CC=C1[C@@]2(C)CC[C@@]2(C)[C@@H]3C[C@](C)(C(=O)O)CC[C@]3(C)CC[C@]12C [celastrol]
difference in IC50 value (selectivity for UCHL1) (UCHL1 [1]; USP15, Ub-AMC): ≥ 4 fold
IC50 (HA-UCHL1 [2]): 4.46 µM
recovered UCHL1 activity after rapid dilution (UCHL1 [3]): > 80%
inhibition of endogenous UCHL1 labeling by HA-UbVMe (endogenous UCHL1): stronger inhibition

SMILES: O=c1c2cc(O)c(O)cc2oc2cc(O)c([C@@H]3O[C@H](CO)[C@@H](O)[C@H](O)[C@H]3O)c(O)c12 [mangiferin]
IC50 (UCHL1 [1]): 8.9 µM
difference in IC50 value (selectivity for UCHL1) (UCHL1 [1]; USP15, Ub-AMC): ≥ 4 fold
IC50 (HA-UCHL1 [2]): 1.12 µM
recovered UCHL1 activity after rapid dilution (UCHL1 [3]): > 80%
inhibition of endogenous UCHL1 labeling by HA-UbVMe (endogenous UCHL1): stronger inhibition
